In the supplement of paper PMC10307832:

Assays:
Assay in all cases: relative viability (nuclei count vs DMSO), 5 days (fraction); higher = more cells survive
MK-8033 + Bortezomib = compound: Cn1cc(-c2cnc3ccc4ccc(CS(=O)(=O)NCc5ccccn5)cc4c(=O)c3c2)cn1 [MK-8033] + CC(C)C[C@H](NC(=O)[C@H](Cc1ccccc1)NC(=O)c1cnccn1)B(O)O [Bortezomib] (partner 0.002 µM)
Procedure, shortened: (§1)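 For relative viability, nuclei counts in treated wells were divided by those in vehicle wells. Lung cancer cell lines had been pin-tool dosed in 1536-well plates the day after seeding and cultured for 5 days, then fixed and stained in one step (final 0.05% Triton X-100, 1% formaldehyde, 1 ug/ml Hoechst) and imaged at 4×. Doses were one drug alone or a fixed anchor-drug dose plus five library-drug doses (not always all listed) in √10 steps, and values are duplicate-plate medians.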

Irinotecan + Alpelisib = compound: CCc1c2c(nc3ccc(OC(=O)N4CCC(N5CCCCC5)CC4)cc13)-c1cc3c(c(=O)n1C2)COC(=O)[C@]3(O)CC [Irinotecan] + Cc1nc(NC(=O)N2CCC[C@H]2C(N)=O)sc1-c1ccnc(C(C)(C)C(F)(F)F)c1 [Alpelisib] (partner 2 µM)
Procedure, shortened: as §1

RU-SKI 43 + Linsitinib = compound: CC[C@@H](C)CNCC(=O)N1CCC2=C([C@@H]1COC3=CC=CC(=C3)C)C=CS2 [RU-SKI 43] + C[C@]1(O)C[C@@H](c2nc(-c3ccc4ccc(-c5ccccc5)nc4c3)c3c(N)nccn32)C1 [Linsitinib] (partner 1 µM)
Procedure, shortened: as §1

RU-SKI 43 + Pictilisib = compound: CC[C@@H](C)CNCC(=O)N1CCC2=C([C@@H]1COC3=CC=CC(=C3)C)C=CS2 [RU-SKI 43] + CS(=O)(=O)N1CCN(Cc2cc3nc(-c4cccc5[nH]ncc45)nc(N4CCOCC4)c3s2)CC1 [Pictilisib] (partner 1 µM)
Procedure, shortened: as §1

UMC-11 gave a relative viability (MK-8033 + Bortezomib; first compound 0.02 µM) of 0.673, a relative viability (MK-8033 + Bortezomib; first compound 0.06325 µM) of 0.664 and a relative viability (MK-8033 + Bortezomib; first compound 0.2 µM) of 0.831. The relative viability (MK-8033 + Bortezomib; first compound 0.6325 µM) was 0.665, the relative viability (MK-8033 + Bortezomib; first compound 2 µM) was 0.664 and the relative viability (Irinotecan + Alpelisib; first compound 0.6325 µM) was 0.572. For the same cell line, the relative viability (Irinotecan + Alpelisib; first compound 2 µM) was 0.401, the relative viability (Irinotecan + Alpelisib; first compound 6.325 µM) was 0.214 and the relative viability (Irinotecan + Alpelisib; first compound 20 µM) was 0.229. It also gave a relative viability (RU-SKI 43 + Linsitinib; first compound 0.1 µM) of 1.11, a relative viability (RU-SKI 43 + Linsitinib; first compound 0.3162 µM) of 1.21 and a relative viability (RU-SKI 43 + Linsitinib; first compound 1 µM) of 1.07. The relative viability (RU-SKI 43 + Linsitinib; first compound 3.162 µM) was 1.04, the relative viability (RU-SKI 43 + Linsitinib; first compound 10 µM) was 1.07 and the relative viability (RU-SKI 43 + Pictilisib; first compound 0.1 µM) was 0.958. The relative viability (RU-SKI 43 + Pictilisib; first compound 0.3162 µM) was 1.11, the relative viability (RU-SKI 43 + Pictilisib; first compound 1 µM) was 0.876 and the relative viability (RU-SKI 43 + Pictilisib; first compound 3.162 µM) was 0.789. For the same cell line, the relative viability (RU-SKI 43 + Pictilisib; first compound 10 µM) was 0.695.
